This note sets out measurements from US6592867B2, “Antimicrobial composition containing an oxidoreductase and an enhancer of the N-hydroxyanilide-type” (Novozymes A/S, priority 1998, dated 2003).

One assay concerns Pseudomonas fluorescens. As to the kind of experiment: Bactericidal activity of phenol oxidizing enzyme plus enhancing agent, surviving cells enumerated by Malthus (Examples 1 and 3). In kind it is cell-based. Conditions: 20 min, 40° C. The procedure:
(§1) Antimicrobial activity was evaluated in 0.05 M MES-buffer (Sigma M8250) (pH 6) or 0.05 HEPES-buffer (Sigma H3375) (pH 8); buffers were sterilised by filter sterilisation. The antimicrobial activity was determined against Pseudomonas fluorescens (Gram et al. 1990, International Journal of Food Microbiology 10: 303-316) and Staphylococcus epidermidis (DSM 20042). Cells were grown in Tryptone Soya Broth (Oxoid CM129) at 30° C. (S. epidermidis) or 25° C. (P. fluorescens) for 24 h and diluted in the MES-buffer to a final cell concentration of approximately 10^6 cfu/ml. The cell suspensions were mixed with rCiP (3 POXU/ml), enhancing agent (0.2 mM) and hydrogen peroxide (0.5 mM) for 20 min at 40° C. The bactericidal activity was determined by incubation in Malthus. Detection times measured by the Malthus instrument were converted to cfu/ml by a calibration curve. Either direct or Indirect Malthus measurements were used when enumerating total survival cells (Malthus Flexi M2060, Malthus Instrument Limited). By the direct measurements, the cell metabolism was determined by conductance measurements in the growth substrate. By the indirect measurements, 3 ml of growth medium was transferred to the outer chamber of the indirect Malthus cells, and 0.5 ml of sterile KOH (0.1 M) was transferred to the inner chamber. The cell suspensions were after enzyme treatment transferred to the outer chamber of the Malthus cell. As cells are growing in the outer chamber they produce CO2 which will dissolve in the KOH in the inner chamber and thereby change the conductance of the KOH. The amount of CO2 formed by the respiring cells surviving the enzyme treatment was used for estimating the number of viable cells. When the conductance change is measurable by the Malthus, a detection time (dt) will be recorded. The dt's were converted to colony counts by use of a calibration curve relating cfu/ml to dt (Johansen et al. 1995. Journal of Applied Bacteriology 78:297-303, Johansen et al. 1997, Applied and Environmental Microbiology 63:3724-3728). Antibacterial activity of Coprinus cinereus peroxidase (rCiP), Polyporus pinsitus laccase (rPpL), Coprinus cinereus laccase (rCcL) and Rhizoctonia solani laccase (rRsL) (as described in WO 95/07988) was determined with different enhancing agents at pH 6 and 8 (buffers; see Example 1). The rCiP was combined with 0.5 mM hydrogen peroxide. Antimicrobial activity of rCiP and rPpL was determined against Pseudomonas fluorescens (Gram et al. 1990, International Journal of Food Microbiology 10:303-316), whereas antimicrobial activity of rCcL and rRsL was determined against Pseudomonas aeruginosa (ATCC 10145). The bactericidal activity was determined as described in example 1. The results are shown as the reduction in living cell number. Thus, a reduction of 4 correspond to a 4 log reduction of living cells e.g. from 10^6 CFU/ml to 10^2 CFU/ml.

Assay [1] relates to Pseudomonas aeruginosa (ATCC 10145). As to the kind of experiment: Bactericidal activity of laccase plus enhancing agent, surviving cells enumerated by Malthus (Examples 2 and 3). In kind it is cell-based. Particulars: 20 min, 40° C. The procedure:
as §1, with “The antimicrobial” for “Antimicrobial activity was evaluated in 0.05 M MES-buffer (Sigma M8250) (pH 6) or 0.05 HEPES-buffer (Sigma H3375) (pH 8); buffers were sterilised by filter sterilisation. The antimicrobial”, “activity of Polyporus pinsitus laccase (rPpL), obtained as described in WO 96/00290), and Coprinus cinereus laccase (rCcL), obtained as described in WO 97/08325, was determined with N-hydroxyacetanilide as enhancing agent against Pseudomonas aeruginosa (ATCC 10145), Enterobacter aerogenes (ATCC 13048) and Enterococcus faecalis (DSM 2570). The bactericidal activity was determined as described in Example 1, the antimicrobial activity of rPpL (1 mg/L) was evaluated at pH 6, whereas rCcL (1 mg/L) was evaluated at pH 8. Antibacterial activity of Coprinus cinereus” for “activity of Coprinus cinereus”

[2] abbreviates: rCiP = 3 POXU/ml + 0.5 mM hydrogen peroxide, pH 6.
Where [3] appears, read: rCiP = 3 POXU/ml + 0.5 mM hydrogen peroxide, pH 8.

As to `CC(=O)c1ccc(N(O)C(C)=O)cc1` [N1-(4-acetylphenyl)-N1-hydroxyacetamide], the “Bactericidal activity (reduction in living cell number)” value in the assay with Pseudomonas fluorescens (setting [2]) is on record as 1.2 log CFU/ml.
For the compound `CC(=O)N(O)c1ccc(C#N)cc1` [N1-(4-cyanophenyl)-N1-hydroxyacetamide], in the assay with Pseudomonas fluorescens (rPpL = 5 mg/L, pH 6), the “Bactericidal activity (reduction in living cell number)” value is 1.7 log CFU/ml.
Take `CC(=O)N(O)c1ccc(O)cc1` [N1-(4-hydroxyphenyl)-N1-hydroxyacetamide]: the “Bactericidal activity (reduction in living cell number)” value with Pseudomonas fluorescens (setting [2]) came to 3.7 log CFU/ml; in the assay on Pseudomonas fluorescens (setting [3]), 1.1 log CFU/ml.
Consider `CC(=O)N(O)c1cccc([N+](=O)[O-])c1` [N1-hydroxy-N1-(3-nitrophenyl)acetamide], for which the “Bactericidal activity (reduction in living cell number)” value is on record as 1.5 log CFU/ml in the assay with Pseudomonas fluorescens (setting [2]); 1.1 log CFU/ml in the assay with Pseudomonas fluorescens (setting [3]); 1.6 log CFU/ml in the assay on Pseudomonas fluorescens (rPpL = 5 mg/L, pH 6).
With `CC(=O)N(O)c1ccc([N+](=O)[O-])cc1` [N1-hydroxy-N1-(4-nitrophenyl)acetamide], the “Bactericidal activity (reduction in living cell number)” value was 4.2 log CFU/ml in the assay on Pseudomonas fluorescens (setting [2]); 1.2 log CFU/ml in the assay on Pseudomonas fluorescens (setting [3]); 6.7 log CFU/ml in the assay on Pseudomonas fluorescens (rPpL = 5 mg/L, pH 6); 1.7 log CFU/ml in the assay with Pseudomonas fluorescens (rPpL = 5 mg/L, pH 8).
`N#Cc1ccc(C(=O)N(O)c2ccccc2)cc1` [N1-hydroxy-N1-phenyl-4-cyanobenzamide]: the “Bactericidal activity (reduction in living cell number)” value was 6.1 log CFU/ml in the assay with Pseudomonas fluorescens (setting [2]); 2.1 log CFU/ml in the assay on Pseudomonas fluorescens (setting [3]); 2.5 log CFU/ml in the assay with Pseudomonas fluorescens (rPpL = 5 mg/L, pH 6); 3.5 log CFU/ml in assay [1] (rCcL = 5 mg/L, pH 6); 6.5 log CFU/ml in assay [1] (rCcL = 5 mg/L, pH 8); 3.5 log CFU/ml in assay [1] (rRsL = 5 mg/L, pH 6). In addition, the “Bactericidal activity (reduction in living cell number)” value in assay [1] (rRsL = 5 mg/L, pH 8) worked out at 6.5 log CFU/ml.
For the compound `COc1ccc(C(=O)N(O)c2ccccc2)cc1` [N1-hydroxy-N1-phenyl-4-methoxybenzamide], the “Bactericidal activity (reduction in living cell number)” value in the assay on Pseudomonas fluorescens (setting [2]) worked out at 4.1 log CFU/ml; with Pseudomonas fluorescens (rPpL = 5 mg/L, pH 8), 4.8 log CFU/ml; in assay [1] (rCcL = 5 mg/L, pH 6), 5.9 log CFU/ml; in assay [1] (rCcL = 5 mg/L, pH 8), 6.3 log CFU/ml; in assay [1] (rRsL = 5 mg/L, pH 6), 3.8 log CFU/ml; in assay [1] (rRsL = 5 mg/L, pH 8), 4.6 log CFU/ml.
Turning to `O=C(c1ccc([N+](=O)[O-])cc1)N(O)c1ccccc1` [N1-hydroxy-N1-phenyl-4-nitrobenzamide], the “Bactericidal activity (reduction in living cell number)” value in the assay with Pseudomonas fluorescens (setting [3]) is 1.4 log CFU/ml.
